# In US9073926B2, “Heterocyclic compounds containing a pyrrolopyridine or benzimidazole core” (Boehringer Ingelheim International GmbH, priority 2009, dated 2015):
# Target: Human RSK2 (Homo sapiens (Human), UniProt P51812)
# Test: Human RSK2 Assay (Kinase Glo Plus, residual ATP)
# Assay type: biochemical
# Details: 0.75 nM His-RSK2, 0.75 μM ATP, 1.0 μM S6 Kinase/RSK Substrate Peptide 1
# How it was run: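 His-RSK2 (0.75 nM) with 0.75 μM ATP and 1.0 μM S6 kinase/RSK substrate peptide in HEPES pH 7.5 buffer with Mg/Mn, 90 min at 28° C. Residual ATP read by Kinase Glo Plus luminescence; percent of control fitted to a 4-parameter logistic, IC50 taken as inflection point.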
# Chain of Human RSK2 (P51812 whole entry): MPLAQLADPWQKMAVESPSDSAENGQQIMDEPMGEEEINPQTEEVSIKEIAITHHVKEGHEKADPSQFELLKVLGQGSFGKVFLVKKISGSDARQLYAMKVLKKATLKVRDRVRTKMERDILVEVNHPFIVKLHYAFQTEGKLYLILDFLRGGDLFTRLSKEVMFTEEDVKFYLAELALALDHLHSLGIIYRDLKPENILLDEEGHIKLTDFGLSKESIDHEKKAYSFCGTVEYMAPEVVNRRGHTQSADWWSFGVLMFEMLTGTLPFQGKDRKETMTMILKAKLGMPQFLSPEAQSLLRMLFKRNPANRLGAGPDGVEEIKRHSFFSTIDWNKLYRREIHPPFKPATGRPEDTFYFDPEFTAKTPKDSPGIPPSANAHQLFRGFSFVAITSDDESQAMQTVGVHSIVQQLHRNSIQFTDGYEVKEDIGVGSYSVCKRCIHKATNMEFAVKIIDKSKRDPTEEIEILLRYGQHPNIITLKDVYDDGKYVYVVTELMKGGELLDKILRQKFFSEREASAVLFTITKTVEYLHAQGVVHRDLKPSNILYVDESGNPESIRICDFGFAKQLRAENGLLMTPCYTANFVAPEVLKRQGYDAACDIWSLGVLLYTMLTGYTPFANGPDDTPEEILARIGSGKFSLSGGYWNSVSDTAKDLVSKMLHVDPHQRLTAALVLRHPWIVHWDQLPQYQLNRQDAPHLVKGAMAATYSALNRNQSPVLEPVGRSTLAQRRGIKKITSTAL
row,SMILES,IC50 [nM]
1,"CC1(C)CNC(=O)c2cc3ccc(C(=O)Nc4cc(Cc5ccccc5)on4)nc3n2C1 [Example 93, N-(5-benzyl-1,2-oxazol-3-yl)-9,9-dimethyl-6-oxo-7,8,9,10-tetrahydro-6H-pyrido[3′,2′:4,5]pyrrolo[1,2-a][1,4]diazepine-2-carboxamide]",360
2,"C[C@H]1CNC(=O)c2cc3ccc(C(=O)Nc4cc(Cc5ccccc5)on4)nc3n21 [Example 97, (9S)-N-(5-benzyl-1,2-oxazol-3-yl)-9-methyl-6-oxo-6,7,8,9-tetrahydropyrido[3′,2′:4,5]pyrrolo[1,2-a]pyrazine-2-carboxamide]",490
3,"O=C(Nc1cc(-c2ccccc2)no1)c1ccc2nc3n(c2c1)CCCNC3=O [Example 19, 1-oxo-N-(3-phenyl-1,2-oxazol-5-yl)-2,3,4,5-tetrahydro-1H-[1,4]diazepino[1,2-a]benzimidazole-8-carboxamide]",290
4,"CCOC(=O)c1nc(NC(=O)c2ccc3cc4n(c3n2)CCCNC4=O)cn1C [Example 28, ethyl 1-methyl-4-{[(6-oxo-7,8,9,10-tetrahydro-6H-pyrido[3′,2′:4,5]pyrrolo[1,2-a][1,4]diazepin-2-yl)carbonyl]amino}-1H-imidazole-2-carboxylate]",90
5,"CC1CNC(=O)c2cc3ccc(C(=O)Nc4nccs4)nc3n21 (stereo not shown) [Example 103, 9-methyl-6-oxo-N-(1,3-thiazol-2-yl)-6,7,8,9-tetrahydropyrido[3′,2′:4,5]pyrrolo[1,2-a]pyrazine-2-carboxamide]",330
6,"CC(C)n1ncc2cc(NC(=O)c3ccc4cc5n(c4n3)CC(C)(C)CNC5=O)cnc21 [Example 31, 9,9-dimethyl-6-oxo-N-[1-(propan-2-yl)-1H-pyrazolo[3,4-b]pyridin-5-yl]-7,8,9,10-tetrahydro-6H-pyrido[3′,2′:4,5]pyrrolo[1,2-a][1,4]diazepine-2-carboxamide]",105
7,"CCc1cc(NC(=O)c2ccc3cc4n(c3n2)CC(C)(C)CNC4=O)no1 [Example 88, N-(5-ethyl-1,2-oxazol-3-yl)-9,9-dimethyl-6-oxo-7,8,9,10-tetrahydro-6H-pyrido[3′,2′:4,5]pyrrolo[1,2-a][1,4]diazepine-2-carboxamide]",109
8,"Cn1cc(NC(=O)c2ccc3nc4n(c3c2)CCCNC4=O)cn1 [Example 13, N-(1-methyl-1H-pyrazol-4-yl)-1-oxo-2,3,4,5-tetrahydro-1H-[1,4]diazepino[1,2-a]benzimidazole-8-carboxamide]",320
9,"O=C(Nc1cnc2ccccc2c1)c1ccc2nc3n(c2c1)CCCNC3=O [Example 12, 1-oxo-N-(quinolin-3-yl)-2,3,4,5-tetrahydro-1H-[1,4]diazepino[1,2-a]benzimidazole-8-carboxamide]",1200
10,"O=C(Nc1cccc(F)c1)c1ccc2nc3n(c2c1)CCCNC3=O [Example 8, N-(3-fluorophenyl)-1-oxo-2,3,4,5-tetrahydro-1H-[1,4]diazepino[1,2-a]benzimidazole-8-carboxamide]",960
11,"Cn1cc(NC(=O)c2ccc3nc4n(c3c2)C(C)(C)CCNC4=O)cn1 [Example 14, 5,5-dimethyl-N-(1-methyl-1H-pyrazol-4-yl)-1-oxo-2,3,4,5-tetrahydro-1H-[1,4]diazepino[1,2-a]benzimidazole-8-carboxamide]",4000
12,"CCn1c(NC(=O)c2ccc3cc4n(c3n2)[C@@H](C)[C@H](C)NC4=O)nc2ccccc21 (relative stereo) [Example 74, N-(1-ethyl-1H-benzimidazol-2-yl)- trans-8,9-dimethyl-6-oxo-6,7,8,9-tetrahydropyrido[3′,2′:4,5]pyrrolo[1,2-a]pyrazine-2-carboxamide]",1110
13,"Cc1cc(NC(=O)c2ccc3cc4n(c3n2)[C@@H](C)[C@H](C)NC4=O)no1 (relative stereo) [Example 86, Trans-8,9-dimethyl-N-(5-methyl-1,2-oxazol-3-yl)-6-oxo-6,7,8,9-tetrahydropyrido[3′,2′:4,5]pyrrolo[1,2-a]pyrazine-2-carboxamide]",110
14,"O=C(Nc1cccc(-c2c[nH]cn2)c1)c1ccc2nc3n(c2c1)CCCNC3=O [Example 22, N-[3-(1H-imidazol-4-yl)phenyl]-1-oxo-2,3,4,5-tetrahydro-1H-[1,4]diazepino[1,2-a]benzimidazole-8-carboxamide]",1700

# The remaining lines, values ahead:
row,IC50 [nM],SMILES
1,84,"CC(C)n1ncc2cc(NC(=O)c3ccc4cc5n(c4n3)[C@@H](C)CNC5=O)cnc21 [Example 63, (9S)-9-methyl-6-oxo-N-[1-(propan-2-yl)-1H-pyrazolo[3,4-b]pyridin-5-yl]-6,7,8,9-tetrahydropyrido[3′,2′:4,5]pyrrolo[1,2-a]pyrazine-2-carboxamide]"
2,69,"Cn1cc(NC(=O)c2ccc3nc4n(c3c2)CCCNC4=O)nc1C(=O)NC1CCCC1 [Example 10, N-[2-(cyclopentylcarbamoyl)-1-methyl-1H-imidazol-4-yl]-1-oxo-2,3,4,5-tetrahydro-1H-[1,4]diazepino[1,2-a]benzimidazole-8-carboxamide]"
3,54.5,"CCn1c(NC(=O)c2ccc3cc4n(c3n2)[C@@H](C)CNC4=O)nc2ccccc21 [Example 71, (9S)-N-(1-ethyl-1H-benzimidazol-2-yl)-9-methyl-6-oxo-6,7,8,9-tetrahydropyrido[3′,2′:4,5]pyrrolo[1,2-a]pyrazine-2-carboxamide]"
4,19,"Cc1cc(NC(=O)c2ccc3cc4n(c3n2)CCCNC4=O)no1 [Example 80, N-(5-methyl-1,2-oxazol-3-yl)-6-oxo-7,8,9,10-tetrahydro-6H-pyrido[3′,2′:4,5]pyrrolo[1,2-a][1,4]diazepine-2-carboxamide]"
5,3.9,"C[C@@H]1CNC(=O)c2cc3ccc(C(=O)Nc4cc(Cc5ccccc5)on4)nc3n21 [Example 98, (9R)-N-(5-benzyl-1,2-oxazol-3-yl)-9-methyl-6-oxo-6,7,8,9-tetrahydropyrido[3′,2′:4,5]pyrrolo[1,2-a]pyrazine-2-carboxamide]"
6,3.3,"CC1CCNC(=O)c2cc3ccc(C(=O)Nc4cc(Cc5ccccc5)on4)nc3n21 (stereo not shown) [Example 94, N-(5-benzyl-1,2-oxazol-3-yl)-10-methyl-6-oxo-7,8,9,10-tetrahydro-6H-pyrido[3′,2′:4,5]pyrrolo[1,2-a][1,4]diazepine-2-carboxamide]"
7,3,"C[C@@H]1CNC(=O)c2cc3ccc(C(=O)Nc4cnc5ccccc5c4)nc3n21 [Example 64, (9R)-9-methyl-6-oxo-N-(quinolin-3-yl)-6,7,8,9-tetrahydropyrido[3′,2′:4,5]pyrrolo[1,2-a]pyrazine-2-carboxamide]"
8,3,"C[C@@H]1NC(=O)c2cc3ccc(C(=O)Nc4cnn(Cc5ccccc5)c4)nc3n2[C@H]1C (relative stereo) [Example 62, N-(1-benzyl-1H-pyrazol-4-yl)-trans-8,9-dimethyl-6-oxo-6,7,8,9-tetrahydropyrido[3′,2′:4,5]pyrrolo[1,2-a]pyrazine-2-carboxamide]"
9,2.3,"CC1CCNC(=O)c2cc3ccc(C(=O)Nc4cnc5c(cnn5C5CCOCC5)c4)nc3n21 (stereo not shown) [Example 32, 10-methyl-6-oxo-N-[1-(tetrahydro-2H-pyran-4-yl)-1H-pyrazolo[3,4-b]pyridin-5-yl]-7,8,9,10-tetrahydro-6H-pyrido[3′,2′:4,5]pyrrolo[1,2-a][1,4]diazepine-2-carboxamide]"

# Test system: NHE1
# Test: not given
# Details: Cuello et al., Mol Pharmacol 71:799-806, 2007; cited from earlier work
SMILES,basal NHE1 activity,phosphorylation of NHE1 and phenylephrine-induced enhanced NHE1 activity
Cc1ccc(-c2c(C(=O)CF)n(CCCO)c3ncnc(N)c23)cc1 [fmk],without affecting basal activity,inhibit phosphorylation of NHE1
